Consider 8 compounds from patent US8536097B2, “4-(4-haloalkyl-3-thiobenzoyl)pyrazoles and use thereof as herbicides” (Bayer Cropscience AG, priority 2010, dated 2013).

Common to all, as to format: in vivo
Experiment [1] has as its system Matricaria inodora. The experiment is described as follows: Post-emergence herbicidal action against weed plants. The note with it: dose 80 g a.c./ha, scored after 3 to 4 weeks. The protocol: (§1) [table] 2. Post-Emergence Herbicidal Action Against Weed Plants Seeds of monocotyledonous and dicotyledonous weed plants are set out in cardboard pots in sandy loam soil, covered with soil, and cultivated under glass under good growth conditions. Two to three weeks after sowing, the trial plants are treated at the three-leaf stage. The compounds according to the invention, formulated as wettable powders or as emulsifiable concentrates, are sprayed onto the surface of the green parts of the plants, at a water application rate of 600 to 800 I/ha (converted). After the trial plants have stood for 3 to 4 weeks under optimum growth conditions under glass, the action of the compounds according to the invention is scored in comparison to compounds disclosed in the prior art.

Experiment [2] relates to Avena fatua. In words: Pre-emergence herbicidal action against weed plants. The note with it: dose 80 g a.c./ha, scored after 3 to 4 weeks. From the text: (§2) Seeds or rhizome sections of mono- and dicotyledonous weed plants are set out in pots of 9 to 13 cm in diameter, in sandy loam soil, and are covered with soil. The herbicides, formulated as emulsifiable concentrates or dusts, are applied to the surface of the covering earth in the form of aqueous dispersions or suspensions or emulsions, at a water application rate of 300 to 800 I/ha (converted) in different doses. The pots are then maintained under glass under optimum conditions for the further cultivation of the plants. After 3 to 4 weeks under optimum growth conditions under glass, the trial plants are scored for the effect of the compounds according to the invention in comparison to compounds disclosed in the prior art. […] [table]

The test system of experiment [3] is Cyperus serotinus. The description is as above. The note with it: scored after 3 to 4 weeks.
Text: as §2

Experiment [4] concerns Viola tricolor. The experiment is described as above. The note with it: scored after 3 to 4 weeks.
Text: as §2

Experiment [5] has as its system Amaranthus retroflexus. The experiment is described as follows: Post-emergence herbicidal action against weed plants. To be noted: dose 320 g a.c./ha, scored after 3 to 4 weeks. The method, then:
as §1

Experiment [6] relates to Viola tricolor. The description is as above. The note with it: dose 320 g a.c./ha, scored after 3 to 4 weeks. The protocol: as §1
Experiment [7] relates to Alopecurus myosuroides. The experiment is described as follows: Pre-emergence herbicidal action against weed plants. The note with it: dose 320 g a.c./ha, scored after 3 to 4 weeks.
Text: as §2

The test system of experiment [8] is Setaria viridis. In words: Post-emergence herbicidal action against weed plants. The note with it: dose 80 g a.c./ha, scored after 3 to 4 weeks. The protocol:
as §1

For `Cc1c(C(=O)c2cnn(C)c2O)ccc(C(F)(F)F)c1S(C)(=O)=O` [1-4, known from WO 2008/125214], the “Herbicidal action against MATIN” value in experiment [1] is listed as 50%.
Regarding `Cc1c(C(=O)c2cnn(C)c2O)ccc(C(F)(F)F)c1[S+](C)[O-]` (centres unmarked) [1-9, known from WO 2008/125214], in experiment [2], the “Herbicidal action against AVEFA” value is reported as 40%. Also, the “Herbicidal action against CYPES” value in experiment [3] (dose 80 g a.c./ha) was 50%. Moreover, the “Herbicidal action against VIOTR” value in experiment [4] (dose 80 g a.c./ha) came to 60%.
Consider `Cc1c(C(=O)c2cnn(C)c2O)ccc(C(F)(F)C(F)(F)F)c1[S+](C)[O-]` (centres unmarked) [1-153], for which the “Herbicidal action against AVEFA” value in experiment [2] is on record as 70%. For the same compound, in experiment [3] (dose 80 g a.c./ha), the “Herbicidal action against CYPES” value stood at 100%. Also, the “Herbicidal action against VIOTR” value in experiment [4] (dose 80 g a.c./ha) stood at 90%.
Turning to `Cc1c(C(=O)c2cnn(C)c2O)ccc(C(F)(F)C(F)(F)F)c1S(C)(=O)=O` [1-161], the “Herbicidal action against MATIN” value in experiment [1] is on record as 100%.
`Cc1nn(C)c(O)c1C(=O)c1ccc(C(F)(F)F)c([S+](C)[O-])c1C` (centres unmarked) [3-9, known from WO 2008/125214]: the “Herbicidal action against VIOTR” value in experiment [4] (dose 320 g a.c./ha) and in experiment [6] was 40% throughout. In addition, the “Herbicidal action against AMARE” value in experiment [5] is on record as 50%.
`Cc1nn(C)c(O)c1C(=O)c1ccc(C(F)(F)F)c(S(C)(=O)=O)c1C` [3-17, known from WO 2008/125214]: the “Herbicidal action against ALOMY” value in experiment [7] stood at 50%. The “Herbicidal action against CYPES” value in experiment [3] (dose 320 g a.c./ha) turned out to be 50%. In addition, in experiment [8], the “Herbicidal action against SETVI” value was found to be 60%.
On to `Cc1nn(C)c(O)c1C(=O)c1ccc(C(F)(F)C(F)(F)F)c([S+](C)[O-])c1C` (centres unmarked) [3-153], for which the “Herbicidal action against VIOTR” value turned out to be 90% in experiment [4] (dose 320 g a.c./ha) and 80% in experiment [6]. In addition, the “Herbicidal action against AMARE” value in experiment [5] is on record as 80%.
As to `Cc1nn(C)c(O)c1C(=O)c1ccc(C(F)(F)C(F)(F)F)c(S(C)(=O)=O)c1C` [3-161], the “Herbicidal action against ALOMY” value in experiment [7] is 90%. Further, in experiment [3] (dose 320 g a.c./ha), the “Herbicidal action against CYPES” value worked out at 80%. For the same compound, in experiment [8], the “Herbicidal action against SETVI” value came out at 100%.
